Consider one substance from patent US20220249376A1, “NANOVESICLES AND ITS USE FOR NUCLEIC ACID DELIVERY” (FUNDACIÓ HOSPITAL UNIVERSITARI VALL D'HEBRON - INSTITUT DE …, priority 2019, published 2022).

The test system of this series is miR-323a-5p. In words: miR-323a-5p expression levels by qPCR after transfection. The series is classed as cell-based. Conditions: SK-N-BE(2), miRNA 50 nM. The protocol:
For in vitro experiments, SK-N-BE(2) neuroblastoma cells were reverse transfected with the addition of the QS-sRNA complexes to complete cell culture medium (IMDM, 10% heat-inactivated foetal bovine serum (FBS) South America Premium (Biowest, Nuaillé, France)) without antibiotics. After overnight (o/n) incubation media was changed for IMDM supplemented with 10% FBS and antibiotics.
Total RNA including small RNAs was extracted using the miRNeasy Mini Kit (Qiagen, Las Matas, Spain). mRNAs were reverse transcribed (0.5 μg total RNA) using Taqman RT kit (#4366596; Applied Biosystems, Thermo Fisher Scientific), and mature miRNA expression analysis was quantified using Taqman microRNA assays (#4440047; Applied Biosystems, Thermo Fisher Scientific) following manufacturer's recommendations. cDNA was quantified by standard RT-qPCR methodology using 2× Power SYBR Green Master Mix (Applied Biosystems, Thermo Fisher Scientific) using the ABI700SDS equipment. […] The relative fold-change Relative quantification of gene expression was performed with a comparative 2^(−ΔΔCT) method (Livak K J, Schmittgen T D. Analysis of relative gene expression data using real-time quantitative PCR and the 2(−Delta Delta C(T)) method. Methods 2001; 25: 402-408).
The RNU44 is as a housekeeping gene, commonly used to normalize the smallRNA content in the analyzed samples. […]
In general terms: Quantitative PCR measures a nucleic acid by following its amplification.

For “miRNA naked: miRIDIAN hsa-miR-323a-5p mimic AGGUGGUCCGUGGCGCGUUCGC (SEQ ID NO: 1), not complexed (listed as RNA, chemistry not given here)”, the miR-323a-5p expression levels entry is listed as “could not increase”.
